Ends that are not written are not given here.
Key:
[1] = system: CHA15 cells transcriptome / NMD targets; assay: RNA-seq of CPP-peptide-treated CHA15 cells (NMD targets, SDGs; Fig. 6a, b, d; Supplementary Fig. 6a; Supplementary Data 2); assay type: cell-based, Homo sapiens; settings: for gene expression, CPP-P8 / P1: vs P1, RNA-seq; for number of NMD targets significantly changed by CPP-P8: hESCs (CHA15)
Experimental: For CPP-conjugated peptide delivery, HeLa, 293T, and PA-1 cells were incubated with CPP-conjugated peptides or CPP-FITC at 2 μM in DMEM with 10% FBS for 12 h a day before cell harvest. hPSCs were treated with CPP-conjugated peptides at 10 μM in mTeSR Plus Medium, […] The ROCK inhibitor (Tocris Bioscience, Y-27632) treated-hPSCs were dissociated into single cells using Accutase (Merck, SCR005) and differentiated into ectoderm, mesoderm, and endoderm using the STEMdiff Trilineage Differentiation Kit ([…] Technologies, 05230) following the manufacturer’s protocol. Differentiated cells treated with CPP-conjugated peptides were analysed at 0, 3, and 5 days for ectoderm and endoderm, and at 0, 3, and 4 days for mesoderm.
Total RNA concentration was calculated using Quant-IT RiboGreen (Invitrogen, R11490). To assess the integrity of the total RNA, samples were run on a TapeStation RNA screentape (Agilent). Only high-quality RNA preparations with RNA integrity number greater than 7.0 were used for the RNA library construction. A library was independently prepared with 1 μg of total RNA from each sample using the Illumina TruSeq Stranded mRNA Sample Prep Kit (Illumina, 20020594). The first step in the workflow involves purifying poly‐A-containing mRNA molecules using poly‐T‐attached magnetic beads. Following purification, mRNA was fragmented into small pieces using divalent cations at elevated temperatures. The cleaved RNA fragments were copied into first-strand cDNA using SuperScript II reverse transcriptase (Invitrogen, 18064022) and random primers. This was followed by second-strand cDNA synthesis using DNA polymerase I, RNase H, and dUTP. These cDNA fragments underwent an end repair process, adding a single ‘A’ base and ligating the adapters. The products were purified and enriched via PCR to create the final cDNA library. The libraries were quantified using the KAPA Library Quantification Kits for Illumina Sequencing platforms according to the qPCR Quantification Protocol Guide (KAPA BIOSYSTEMS, KR0405) and qualified using the TapeStation D1000 ScreenTape (Agilent). Indexed libraries were then submitted to an Illumina NovaSeq (Illumina), and Macrogen Inc. performed paired-end (2 × 100 bp) sequencing.
We pre-processed the raw reads from the sequencer to remove low-quality reads and adapter sequences before analysis and aligned the processed reads to Homo sapiens (GRCh37) using HISAT v2.1.0[52]. HISAT utilises two indices for alignment (a global whole-genome index and tens of thousands of small local indexes). These two types of indices are constructed using the same Burrows-Wheeler transform (BWT)/graph FM index (GFM) as Bowtie2. The reference genome sequence of Homo sapiens (GRCh37) and the annotation data were downloaded from the NCBI database. Transcript assembly was processed using StringTie v1.3.4d[53],[54]. […] Differentially expressed genes (DEGs) were analysed by ratio of FPKM or using DESeq2 with read counts. Log2 fold-change value of the NMD targets[25],[32], three germ layer markers, miRNA targets, or SDGs was converted into cumulative frequency curve using the R function, ‘ecdf’ (version 4.0.5). Gene functional classification and Gene ontology (GO) were performed using g:Profiler[56].

p-UPF1 (Thr28) = assay: Western blot of p-UPF1 (Thr28) in CPP-peptide-treated hPSCs; assay type: cell-based, human; settings: relative to CPP-P1 = 100, n = 3
Experimental: For CPP-conjugated peptide delivery, HeLa, 293T, and PA-1 cells were incubated with CPP-conjugated peptides or CPP-FITC at 2 μM in DMEM with 10% FBS for 12 h a day before cell harvest. hPSCs were treated with CPP-conjugated peptides at 10 μM in mTeSR Plus Medium, and the peptide-containing medium was changed every day over 10 days. The ROCK inhibitor (Tocris Bioscience, Y-27632) treated-hPSCs were dissociated into single cells using Accutase (Merck, SCR005) and differentiated into ectoderm, mesoderm, and endoderm using the STEMdiff Trilineage Differentiation Kit ([…] Technologies, 05230) following the manufacturer’s protocol. Differentiated cells treated with CPP-conjugated peptides were analysed at 0, 3, and 5 days for ectoderm and endoderm, and at 0, 3, and 4 days for mesoderm.
Protein samples were loaded for electrophoresis on sodium dodecyl sulphate (SDS) polyacrylamide gels, followed by Coomassie blue staining or transferred to nitrocellulose membranes (Cytiva) for WB. After blocking with 5% non-fat milk (Cellconic) in Tris-buffered saline with Tween-20 for 30 min at room temperature, the membranes were incubated with the following primary antibodies: anti-FLAG (GenScript, A00187; 1:2000), UPF1 (Cell Signaling Technology, 12040; 1:4000), UPF2 (Cell Signaling Technology, 11875; 1:2000), eIF4E (Cell Signaling Technology, 2067; 1:2000), β-actin (Sigma-Aldrich, A2228; 1:4000), GST (Cytiva, 27-4577-01; 1:2000), MYC (Calbiochem, OP10; 1:2000), Calnexin (Cell Signaling Technology, 2679; 1:4000), LIN28A (Cell Signaling Technology, 3978; 1:2000), pSer1096 phosphorylated UPF1 (1:2000)[58], or p-Thr28 phosphorylated UPF1 (ImmuQuest, IQ653; 1:2000). Primary antibodies were incubated overnight at 4 °C and then washed thrice with TBS-T, followed by incubation with secondary antibodies: Goat anti-Rabbit IgG (Invitrogen, 31460; 1:4000), Goat anti-Mouse IgG (Invitrogen, 31430; 1:4000), or Horse anti-Goat IgG (Vector Laboratories, PI-9500; 1:4000) for 1 h at room temperature. For pull-downed protein detection, all primary and secondary antibodies were diluted at 1:10,000. The blots were imaged using ChemiDoc XRS+ System (Bio-Rad) and the greyscale intensity values were quantified using Image Lab 3.0 software (Bio-Rad).
DAPI FITC Merge DAPI FITC Merge CHA15 H9 Pro2 H9
No peptide CPP-FITC Calnexin
For 2-day treatm ent For 4-day treatm ent […]
Student’s t-test was used. Data are presented as m ean values ± S.D (b) and mean values ± SEM (c and d). All statistical test us ed wer e two-s ided. T he m inim um num ber of independent biological replicate experim ents was a, b, and d n = 3, c n = 5. T he experim ents wer e conducted three tim es, each iteration producing consistent results. […]

Substance	gene expression, CPP-P8 / P1 ([1]; ACTC1)	gene expression, CPP-P8 / P1 ([1]; ACTN1)	gene expression, CPP-P8 / P1 ([1]; ADAR)	gene expression, CPP-P8 / P1 ([1]; ADM)	levels of the NMD targets ([1]; CHA15, 10 μM daily for 5 days)	transcripts with significant two-fold change ([1]; CHA15, 5 days, p < 0.05)	CAPN6 expression (dot plot) ([1]; CHA15, P8 vs P1 plot (Fig. 6d))	CDH6 expression (dot plot) ([1]; CHA15, P8 vs P1 plot (Fig. 6d))	CYP26A1 expression (dot plot) ([1]; CHA15, P8 vs P1 plot (Fig. 6d))	DLX5 expression (dot plot) ([1]; CHA15, P8 vs P1 plot (Fig. 6d))	number of NMD targets downregulated ([1]; CHA15, |Fc| > 1.2, P < 0.05, of 286 NMD targets)	number of NMD targets significantly changed by CPP-P8 ([1]; |Fc| > 1.2, p < 0.05)	NMD targets commonly regulated with UPF1- and LIN28A-depletion ([1]; hPSCs, over 1.2-fold)	transcripts commonly regulated with UPF1- and LIN28A-depletion ([1]; hPSCs, over 1.2-fold)	NMD targets as share of significantly changed genes ([1]; hPSCs)	number of transcripts significantly regulated ([1]; hPSCs, |Fc| > 1.2, p < 0.05)	p-UPF1 (Thr28)/Calnexin, mean (p-UPF1 (Thr28); CHA15, 2-day treatment)	p-UPF1 (Thr28)/Calnexin, mean (p-UPF1 (Thr28); H9, 2-day treatment)	p-UPF1 (Thr28)/Calnexin, mean (p-UPF1 (Thr28); H9, 4-day treatment)	p-UPF1 (Thr28)/Calnexin, mean (p-UPF1 (Thr28); Pro2, 2-day treatment)
KKKWCRKKKSSADEKRYRALKRTAERELLMNA [CPP-P8, CPP conjugated to P8]	-1.36	-1.23	-1.28	-2.99	efficiently depressed the levels of the NMD targets	69 transcripts	0.9142	0.924	1.759	0.5911	32 transcripts	51	10 NMD targets	230 transcripts						
KKKWCRKKKSSADEKRYRALKRTAERELLMNA [P8]												51			2.3%	2196 transcripts	277%	91%	183%	250%
N-QKLDQKELQLEPM-C [P1, reference compound]																	100%	100%	100%	100%
